Experimental data taken from patent US20120202257A1, “LIGE-TYPE ENZYMES FOR BIOCONVERSION OF LIGNIN-DERIVED COMPOUNDS” (priority 2010, published 2012).

B1: ligE1: N. aromaticivorans putative beta-etherase polypeptide, glutathione S-transferase-like protein, expressed in E. coli (protein)
chain: MAANNTITFYDLALSTGATISPFVWATKYALKHKGFDLDVVPGGFTGILERTGGKTERLPAIVDDGEFVLDSWGIVEYLDAKYPDRPVLIPHESVAATLKALDNWFWNAAVGPWMFCFCQDYRDLSLPQDHEYVTHSREKMLGRKLEEVQAGREERLPKISAALEPLRAALAQHQWLGGSSPNYADYRIMGGILFTASVCKTPVLANDDPLRDWIERCLDLYGGLGRHPGLFPLFGLEQREGDPDLFNRAAGQGGIYKRNTGPESTRAETQRITEGMKK
B2: ligE: S. paucimobilis beta-etherase, positive control polypeptide (protein)
chain: MARNNTITLYDLQLESGCTISPYVWRTKYALKHKGFDIDIVPGGFTGILERTGGRSERVPVIVDDGEWVLDSWVIAEYLDEKYPDRPMLFEGPTQKNLMKFLDNWLWSTAVGPWFRCYILDYHDLSLPQDRDYVRWSREQWFLGGQRLEDVQAGREDRLPLVPPTLEPFRRILAETKWLGGDQPNFADYSALAVFLWTASVARTPPLTEDDPLRDWLDRGFDLFDGLGRHPGMNPLFGLKLREGDPEPFVRQTGPAGAGGQALNKGPQTTKMPPRVAEKAD
B3: ABD26530.1: N. aromaticivorans putative beta-etherase polypeptide (protein)
chain: MVIPLGEDNTIMLKLYSFGPAANSMKPLLTVFEKGLDVEKHRLDPAKFEHHTDWFKAINPRGQVPALVDGDKVVTESTVICEYLEDEYPTEVALRPADSFGKAQMRIWTKWVDEYFCWCVSTIGWHRYVGNMVKSLSDAEFEEKVKAIPVIEQQVKWRRAREGFPQDMLDEEMRKIAYSVRKLDDHLADHEWLVPGQYTLADICNFAIANGMQFGFAELVNKQDTPHLVRWIEQINERPAVKQMFAQVELEKLGPRE
B4: LigF2: N. aromaticivorans putative beta-etherase polypeptide, glutathione S-transferase-like protein (protein)
chain: MALKYYHAEPLANSLKSMVPLKEKGLAYESIYVDLHKFEQHQPWFTAINPEGQVPVLDHDGTIITHTTVINEYLEDAFPDAQPADAPLRPRDPVGAARMRYWNKFIDEHVMNYVSMHGWHRMVGVIARNIASGDFEKLLESIPLPDQRKKWATARSGFSEADLANATAKIEYALDKVEKQLGETKWLAGDTYTLADINFYSHCGAMVERMFPEMEVARRAPRLCEWRDRVAARPAVAEALKSEDRTAPGLRVWSGEVR
B5: ABD27309.1: N. aromaticivorans putative beta-etherase polypeptide (protein)
chain: MDEVSLYHWEPNANSGKPMLALMEKGVPFSSHYIDMLQFDQHKPEYLAINPQGTIPAMTHNGQVLTESTAIMEYVNDRFDGPDLMPADAQDRWRVRWWMKFMDQWLGPSFSMIGWSVFVGPMVRQRDPAELAAAIDRIPLPERRTAWRKAINGDFSESEMAESRRRVGLGIAKLEEELGKRPYVGSNQYSLADINIFNSTYSLPISQPDLAGKDRTPNIMRWLKRVYTREAVKKTWAMGKTDLAHRYGLIMAEIEG
B6: LigF: S. paucimobilis beta-etherase, positive control polypeptide (protein)
chain: MTLKLYSFGPGANSLKPLATLYEKGLEFEQVFVDPSKFEQHSDWFKKINPRGQVPALWHDGKVVTESTVICEYLEDVFPESGNSLRPADPFKRAEMRVWTKWVDEYFCWCVSTIGWAFGIKAIAQKMSDEEFEEHINKNVPIPEQQLKWRRARNGFPQEMLDEEFRKVGVSVARLEETLSKQDYLVDTGYSLADICNFAIANGLQRPGGFFGDYVNQEKTPGLCAWLDRINARPAIKEMFEKSKREDLLKRQNEKVA

system: not listed separately; experiment: in vitro biochemical assay for beta-etherase activity on fluorescent substrate MUAV (formation of 4MU), clarified E. coli cell extracts; conditions: E. coli cell extracts expressing the protein; reactions containing 0.1 mM MUAV substrate
Method: This. example describes a method for gene expression in E. coli, as well as beta-etherase biochemical assays. Expression of known and putative beta-etherase genes was performed using 5 ml cultures of the recombinant E. coli strains described herein in Luria Broth medium by induction of gene expression using isopropylthiogalactoside (IPTG) to a final concentration of 0.1 mM. Following induction, and cell harvest, the cells were disrupted using either sonication or the BPER (Invitrogen) cell lysis system.
In vitro reactions were performed in a total volume of 200 ul and contained: 25 mM TrisHCl pH 7.5; 0.5 mM dithiothreitol; 1 mM glutathione; 0.05 mM or 0.1 mM MUAV; 10 ul of clarified cell extract used to initiate the reactions. Following incubation for 2.5 hours at room temperature, a 50 ul sample of the reactions was terminated using 150 uL of 300 mM glycine/NaOH buffer pH 9. The formation of 4 methylumbelliferone (4MU) upon hydrolysis of the aryl ether bond was monitored by the increase in fluorescence at λex=360 nm and λem=450 nm using a Spectramax UV/visible/fluorescent spectrophotometer.
The total protein concentrations of the cell lysates were determined using the BCA reagent system for protein quantification (Pierce). […]

Q: Which “total activity (beta-etherase)” value does the source give for B1 here?
A: Its value is 529 rfu/ug.

Q: For B2, which “total activity (beta-etherase)” value is on record?
A: Its value is 7 rfu/ug.

same assay, conditions: MUAV substrate

Q: For B1, which “beta-etherase activity (in words)” value is on record?
A: The value was “much elevated beta-etherase activity”.

Q: For B3, which “beta-etherase activity (in words)” value is on record?
A: Its value is “beta-etherase activity”.

Q: Which “beta-etherase activity (in words)” value does the source give for B4 here?
A: The value was “beta-etherase activity”.

Q: Which “beta-etherase activity (in words)” value does the source give for B5 here?
A: Its value is “beta-etherase activity”.

same assay, conditions: MUAV substrate; LigF-type proteins

Q: For B6, which “total activity (beta-etherase)” value is on record?
A: Its value is 558 rfu/ug.

Q: Which “total activity (beta-etherase)” value does the source give for B4 here?
A: Its value is 1206 rfu/ug.

same assay, conditions: MUAV substrate; listed as ABD26841.1

Q: Which “beta-etherase activity (in words)” value does the source give for B1 here?
A: Its value is “beta-etherase activity”.

system: Saccharomyces cerevisiae; experiment: not given; conditions: cited from earlier work

Q: With `COc1ccc(C=O)cc1OC` [Veratraldehyde] as the molecule, how does the “antifungal activities against the yeast Saccharomyces cerevisiae” value (from here on “antifungal activities”) read?
A: Its value is “significant antifungal activities”.

Q: Which “antifungal activities” value does the source give for `O=C(O)C=Cc1ccccc1` [cinnamic acid] here?
A: The value was “significant antifungal activities”.

Q: For `O=C(O)/C=C/c1cccc(O)c1` [m-coumaric acid], which “antifungal activities” value is on record?
A: Its value is “significant antifungal activities”.

Q: Which “antifungal activities” value does the source give for `O=C(O)/C=C/c1ccccc1O` [o-coumaric acid] here?
A: The value was “significant antifungal activities”.

Q: For `O=C(O)/C=C/c1ccc(O)cc1` [p-coumaric acid], which “antifungal activities” value is on record?
A: The value was “significant antifungal activities”.

Q: For `COc1cc(C(=O)O)ccc1O` [vanillic acid], which “antifungal activities” value is on record?
A: Its value is “significant antifungal activities”.

Q: Which “antifungal activities” value does the source give for `COc1cc(CCC(C)=O)ccc1O` [vanillylacetone] here?
A: The value was “significant antifungal activities”.

system: Escherichia coli; experiment: not given; conditions: benzaldehyde derivatives, each demonstrated; cited from earlier work

Q: Which “antibacterial activity against Escherichia coli” value does the source give for `O=Cc1ccc(O)c(O)c1O` [2,3,4-trihydroxybenzaldehyde] here?
A: Its value is “antibacterial activity”.

Q: For `O=Cc1cccc(O)c1O` [2,3-dihydroxybenzaldehyde], which “antibacterial activity against Escherichia coli” value is on record?
A: The value was “antibacterial activity”.

Q: With `O=Cc1c(O)cc(O)cc1O` [2,4,6-trihydroxybenzaldehyde] as the molecule, how does the “antibacterial activity against Escherichia coli” value read?
A: The value was “antibacterial activity”.

Q: Which “antibacterial activity against Escherichia coli” value does the source give for `O=Cc1ccc(O)cc1O` [2,4-dihydroxybenzaldehyde] here?
A: The value was “antibacterial activity”.

Q: For `O=Cc1cc(O)ccc1O` [2,5-dihydroxybenzaldehyde], which “antibacterial activity against Escherichia coli” value is on record?
A: Its value is “antibacterial activity”.

Q: Which “antibacterial activity against Escherichia coli” value does the source give for `COc1cccc(C=O)c1O` [2-hydroxy-3-methoxybenzaldehyde] here?
A: Its value is “antibacterial activity”.

Q: With `COc1ccc(O)c(C=O)c1` [2-hydroxy-5-methoxybenzaldehyde] as the molecule, how does the “antibacterial activity against Escherichia coli” value read?
A: The value was “antibacterial activity”.

Q: Which “antibacterial activity against Escherichia coli” value does the source give for `O=Cc1ccccc1O` [2-hydroxybenzaldehyde] here?
A: Its value is “antibacterial activity”.

Q: With `COc1cc(O)cc(OC)c1C=O` [4-hydroxy-2,6-dimethoxybenzaldehyde] as the molecule, how does the “antibacterial activity against Escherichia coli” value read?
A: The value was “antibacterial activity”.

same assay, conditions: each known; cited from earlier work

Q: Which “antimicrobial activity against Escherichia coli” value does the source give for `O=Cc1ccc(O)cc1` [4-hydroxybenzaldehyde] here?
A: Its value is “antimicrobial activity”.

Q: For `O=Cc1ccc(CO)o1` [5-hydroxymethylfurfural], which “antimicrobial activity against Escherichia coli” value is on record?
A: Its value is “antimicrobial activity”.

Q: For `O=Cc1ccco1` [furfural], which “antimicrobial activity against Escherichia coli” value is on record?
A: Its value is “antimicrobial activity”.

Q: With `COc1cc(C=O)cc(OC)c1O` [syringaldehyde] as the molecule, how does the “antimicrobial activity against Escherichia coli” value read?
A: Its value is “antimicrobial activity”.

Q: For `COc1cc(C=O)ccc1O` [vanillin], which “antimicrobial activity against Escherichia coli” value is on record?
A: Its value is “antimicrobial activity”.
